# Values quoted from earlier work, collected in publication PMC11195919 (Journal of pharmacy & pharmaceutical sciences : a …, 2021).
# Assays:
# OATP1B3 = conditions: read-out: Km of CCK-8 transport by OATP1B3
substance,measurement,setting,value
cholecystokinin octapeptide [CCK-8],Km,OATP1B3,3.82 µM
same,linear range of initial uptake of CCK-8,primary rat hepatocyte; non-transduced rat hepatocytes,at least 1 min
same,Km,primary rat hepatocyte; read-out: Km of CCK-8 uptake in primary rat hepatocyte,6.7 µM
